Source: publication PMC2860877 (Bioorganic & medicinal chemistry, 2008)

Tests used:
[1] = target: T1, epitope-tagged (histidine6) catalytic domain of human recombinant Cdc25B (Homo sapiens, UniProt P30305); experiment: Cdc25B phosphatase inhibition, catalytic domain; format: biochemical; conditions: for selectivity for Cdc25B as opposed to MKP-1 and MKP-3, in words: comparison of Cdc25B, MKP-1, MKP-3 assays; for Cdc25B activity in words: structure-activity discussion
T1 sequence (P30305 275-539 isoform P30305-3): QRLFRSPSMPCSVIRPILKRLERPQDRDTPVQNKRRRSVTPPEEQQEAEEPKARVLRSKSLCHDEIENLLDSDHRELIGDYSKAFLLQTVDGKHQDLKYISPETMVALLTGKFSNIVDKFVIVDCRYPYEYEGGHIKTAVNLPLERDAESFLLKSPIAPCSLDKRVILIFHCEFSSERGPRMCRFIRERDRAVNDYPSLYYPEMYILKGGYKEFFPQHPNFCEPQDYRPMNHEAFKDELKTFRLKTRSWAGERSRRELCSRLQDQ

[2] = target: T2, epitope-tagged (histidine6) recombinant MKP-1 (Homo sapiens, UniProt P28562); experiment: MKP-1 phosphatase inhibition; format: biochemical
T2 sequence (P28562 1-367): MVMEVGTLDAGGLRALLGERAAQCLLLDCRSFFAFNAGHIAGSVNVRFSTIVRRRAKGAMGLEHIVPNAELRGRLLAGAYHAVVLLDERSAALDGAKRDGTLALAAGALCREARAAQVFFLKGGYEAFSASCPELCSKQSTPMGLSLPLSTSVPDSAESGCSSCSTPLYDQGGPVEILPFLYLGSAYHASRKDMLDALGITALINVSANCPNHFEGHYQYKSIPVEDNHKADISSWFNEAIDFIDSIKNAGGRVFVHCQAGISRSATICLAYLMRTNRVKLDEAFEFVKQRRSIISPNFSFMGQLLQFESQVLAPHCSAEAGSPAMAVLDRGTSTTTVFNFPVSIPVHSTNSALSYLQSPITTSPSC

SMILES | selectivity for Cdc25B as opposed to MKP-1 and MKP-3, in words [1] | IC50 [2] [µM] | Cdc25B activity in words [1]
O=C1C=C(NCCO)C(=O)c2ccccc21 [Compound 18] | – | > 50 | complete loss of activity
O=C1c2cc3c(cc2C(=O)C2OC12)CCCC3 (centres unmarked) [Compound 8] | – | > 50 | –
O=C1C=CC(=O)C=C1 [Compound 10, 1,4-benzoquinone] | – | > 50 | complete loss of enzyme activity
CC1=C(NCCO)C(=O)c2ccccc2C1=O [Compound 19] | – | > 50 | complete loss of activity
O=C1C2=C(C(=O)c3c(O)cccc31)S(=O)(=O)CCN2 [Compound 17] | moderately selective for Cdc25B | – | –
O=C1c2ccccc2C(=O)c2ccccc21 [Compound 12, 9,10-anthraquinone] | – | > 50 | –

Continued, in another order:

selectivity for Cdc25B as opposed to MKP-1 and MKP-3, in words [1] | SMILES | IC50 [2] [µM] | Cdc25B activity in words [1]
moderately selective for Cdc25B | O=C1C2=C(C(=O)c3ccccc31)S(=O)(=O)CCN2 [Compound 16] | – | –
relatively non-selective | CCOC1=CC(=O)C(=O)c2ccccc21 [Compound 20] | – | –
